In patent US20050272700A1, “Topical treatment and prevention of human papilloma virus (HPV) infection” (priority 2004, published 2005):

Assays:
[1] = Stability testing of I3C solutions and formulations by HPLC; assay type: physicochemical; conditions: for amount of the active remaining: aqueous medium, 5° C.; for loss of potency: 2 weeks
Description: Stability testing of the formulations was performed by HPLC analysis. The area of the peak representing I3C or a derivative thereof was monitored.

[2] = tested on: DMBA-induced mammary tumors; conditions: Wattenberg and Loub 1978; cited from earlier work

Compound	amount of the active remaining ([1]; pH 6.0, 2 weeks)	amount of the active remaining ([1]; pH 8.0, 2 weeks)	loss of potency ([1]; same aqueous composition at pH 7.4 without hydroxypropyl-β-cyclodextrin)	loss of potency ([1]; solution at pH 7.4 with added hydroxypropyl-β-cyclodextrin)	reduction of DMBA-induced mammary tumors [2]
OCc1c[nH]c2ccccc12 [Composition I3C, indole-3-carbinol]	completely decomposed	about 93%	16%	1.3%	
c1ccc2c(Cc3c[nH]c4ccccc34)c[nH]c2c1 [DIM, 3,3′-diindoylmethane]					somewhat effective
